The supplement of paper PMC10307832

Columns and labels:
Test in all cases: relative viability (nuclei count vs DMSO), 5 days (fraction); higher = more cells survive
[1] = compound: COc1cc2nc(N3CCCN(C)CC3)nc(NC3CCN(Cc4ccccc4)CC3)c2cc1OC + O=C(CCCCCCC(=O)Nc1ccccc1)NO [Vorinostat] (partner 1 µM)
In short: (§1)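 Cells from lung cancer lines were seeded into 1536-well plates and, one day later, dosed by pin tool. Treatments were either a single drug or a fixed dose of an anchor drug with five library-drug doses (not always all listed) in √10 steps. After 5 days, nuclei were stained in a one-step fixation (final 0.05% Triton X-100, 1% formaldehyde, 1 ug/ml Hoechst) and counted on 4× images, and relative viability is the treated-to-vehicle nuclei ratio, as the median of duplicate plates.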

AZD6482 + Linsitinib = compound: Cc1cc([C@@H](C)Nc2ccccc2C(=O)O)c2nc(N3CCOCC3)cc(=O)n2c1 [AZD6482] + C[C@]1(O)C[C@@H](c2nc(-c3ccc4ccc(-c5ccccc5)nc4c3)c3c(N)nccn32)C1 [Linsitinib] (partner 1 µM)
In short: as §1

AZD6482 + Olaparib = compound: Cc1cc([C@@H](C)Nc2ccccc2C(=O)O)c2nc(N3CCOCC3)cc(=O)n2c1 [AZD6482] + O=C(c1cc(Cc2n[nH]c(=O)c3ccccc23)ccc1F)N1CCN(C(=O)C2CC2)CC1 [Olaparib] (partner 8 µM)
In short: as §1

AZD6482 + Luminespib = compound: Cc1cc([C@@H](C)Nc2ccccc2C(=O)O)c2nc(N3CCOCC3)cc(=O)n2c1 [AZD6482] + CCNC(=O)c1noc(-c2cc(C(C)C)c(O)cc2O)c1-c1ccc(CN2CCOCC2)cc1 [Luminespib] (partner 0.01 µM)
In short: as §1

Cell Line | relative viability ([1]; first compound 0.2 µM) | relative viability ([1]; first compound 0.6325 µM) | relative viability ([1]; first compound 2 µM) | relative viability ([1]; first compound 6.325 µM) | relative viability (AZD6482 + Linsitinib; first compound 0.08 µM) | relative viability (AZD6482 + Linsitinib; first compound 0.253 µM) | relative viability (AZD6482 + Linsitinib; first compound 0.8 µM) | relative viability (AZD6482 + Linsitinib; first compound 2.53 µM) | relative viability (AZD6482 + Linsitinib; first compound 8 µM) | relative viability (AZD6482 + Olaparib; first compound 0.08 µM) | relative viability (AZD6482 + Olaparib; first compound 0.253 µM) | relative viability (AZD6482 + Olaparib; first compound 0.8 µM) | relative viability (AZD6482 + Olaparib; first compound 8 µM) | relative viability (AZD6482 + Luminespib; first compound 0.08 µM) | relative viability (AZD6482 + Luminespib; first compound 0.253 µM) | relative viability (AZD6482 + Luminespib; first compound 0.8 µM) | relative viability (AZD6482 + Luminespib; first compound 2.53 µM) | relative viability (AZD6482 + Luminespib; first compound 8 µM) | relative viability (AZD6482 + Olaparib; first compound 2.53 µM)
LCLC-97TM1 | 0.801 | 0.649 | 1 | 0.69 | 0.189 | 0.158 | 0.168 | 0.134 | 0.169 | 0.403 | 0.285 | 0.413 | 0.244 | 0.77 | 0.803 | 0.66 | 0.327 | 0.282 | –
NCI-H727 | 1.27 | 1.14 | 1.15 | 1.07 | 0.203 | 0.296 | 0.284 | – | 0.281 | 0.681 | 0.666 | 0.66 | 0.669 | 0.245 | 0.348 | 0.786 | 0.292 | 0.345 | –
NCI-H1355 | 0.654 | 0.618 | 0.724 | 0.605 | 0.472 | 0.55 | 0.576 | 0.526 | 0.536 | 0.597 | 0.63 | 0.708 | 0.564 | 0.53 | 0.556 | 0.702 | 0.422 | 0.52 | 0.522
HOP-62 | 0.658 | 0.366 | 0.638 | 0.435 | 1.1 | 0.836 | 1.12 | 0.67 | 0.841 | 0.444 | 0.539 | 0.453 | 0.552 | 0.889 | 1.01 | 1.11 | 0.793 | 1.04 | 0.459
NCI-H2085 | 0.799 | 0.954 | 0.802 | 0.724 | 0.453 | 0.422 | 0.327 | 0.26 | 0.467 | 0.632 | 0.358 | 0.45 | 0.303 | 0.36 | 0.194 | 0.22 | 0.22 | 0.346 | 0.36
